“And” between values parts separate entries of the source, which are not always exact repeats. Equal values may be shown once. Read-outs that look alike come from different tables or passages of the source.

The source of these data is publication PMC3985299, “Single Ascending Dose Safety and Pharmacokinetics of CDRI-97/78: First-in-Human Study of a Novel Antimalarial Drug” (Malaria Research and Treatment, 2014).

Data set [1] can be described thus: Single oral dose (200 mg) pharmacokinetic study, plasma LC-MS/MS, noncompartmental analysis. Format: in vivo, human. As for the experimental part: For pharmacokinetic (PK) study, eligible participants were admitted and housed in the clinical pharmacology unit an evening prior to the PK study. A standard dinner was served and a fasting condition for at least 10 hrs prior to dosing and 4 hrs after dosing was ensured. A peripheral forearm vein was cannulated for sampling for the PK analysis. 200 mg of the study drug was administered with 300 mL of water. The time of actual dose administration to the nearest minute was recorded. 2.5 mL of blood was collected from the indwelling cannula at 0 (before dose), 0.25, 0.5, 0.75, 1, 1.5, 2, 4, 6, 8, 12, 18, 24, 48, 72, 96, 120, and 144 hrs (after dose). 10 mL of additional blood was collected at 0 (before dose) and 24 hr (after dose) for laboratory parameters for safety assessment and PK control sample. A time window of ±2 minutes was permitted for collecting the post dose samples from the scheduled time for PK analysis. Plasma was separated from blood sample intended for PK analysis, within 1 hour of blood sampling, by centrifugation at 2000 rpm for 10 min at 4°C. Samples were stored at −80°C pending transportation. Heparinised blood samples were transported to the laboratory within 7 days of collection. Quantitative analyses of clinical phase ascending dose and single dose PKs samples were done at GLP lab of Pharmacokinetics and Metabolism Division, CDRI, Lucknow, India. α-Arteether was used as an internal standard and all the analyses were performed as per the published method by Singh et al. 2009 [19]. Acceptance criteria for analytical runs were fixed as per internationally approved guidelines. Data acquisition and quantitation were performed using analyst software version 1.4 (Applied Biosystems, MDS SCIEX Toronto, Canada). PK parameters were estimated by using WinNonlin software (Version 1.5, Pharsight Corporation, Mountain View, CA). Oral data were best fitted in noncompartmental model. The individual plasma concentration-time profiles were subjected to noncompartmental analysis to determine various PK parameters. The PK parameters included the terminal elimination half-life (T 1/2), maximum plasma concentration (C max), time to reach maximum plasma concentration (T max), area under the curve (AUC0–∞), and mean residence time (MRT).

Details of data set [2]: method as in printed. The following applies: background statement, ref not given; cited from earlier work.
[3] abbreviates: 97/63 after oral 97/78 200 mg single dose, Mean ± SEM, N = 16.
Where [4] appears, read: 97/63 in plasma after oral 97/78 200 mg single dose, individual volunteers 1-16.
Setting [5] is: human, plasma, po, 200 mg, 97/63 after oral 97/78 200 mg single dose, Mean ± SEM, N = 16.

With `C=C(c1ccc(OC(C)(C)CO)cc1)C1COC2(OO1)C1CC3CC(C1)CC2C3` (stereo not drawn) [97/63], in data set [1] (setting [3]), the “AUC0−∞” value was found to be 878.74 ± 133.15 ng·h/mL and the mean residence time (MRT) (in general, a mean duration of stay, worked out from the concentration-time curve) is listed as 13.77 ± 2.05 h. In data set [1] (setting [4]), the “AUC0−∞” value is 788.7 ng·h/mL and 1898.9 ng·h/mL and 935 ng·h/mL and 356.1 ng·h/mL and 583.6 ng·h/mL and 696.8 ng·h/mL and 833.1 ng·h/mL and 984.1 ng·h/mL and 104.8 ng·h/mL and 1644 ng·h/mL and 602.6 ng·h/mL and 785 ng·h/mL and 1522.6 ng·h/mL and 207.9 ng·h/mL and 1604.9 ng·h/mL and 511.7 ng·h/mL; the C max is 172 ng/mL and 295 ng/mL and 47.4 ng/mL and 50.4 ng/mL and 65.4 ng/mL and 105 ng/mL and 55 ng/mL and 123 ng/mL and 20.1 ng/mL and 373 ng/mL and 187 ng/mL and 149 ng/mL and 355 ng/mL and 42.6 ng/mL and 202 ng/mL and 60.9 ng/mL; the MRT was 12.57 h and 9.76 h and 30.72 h and 14.53 h and 11.26 h and 18.37 h and 32.20 h and 18.52 h and 5.72 h and 13.7 h and 3.53 h and 5.38 h and 14.25 h and 6.42 h and 14.13 h and 9.28 h; the “T 1/2” value is 13.89 h and 11.63 h and 24.26 h and 14.50 h and 10.10 h and 17.73 h and 24.51 h and 18.90 h and 2.17 h and 4.78 h and 2.20 h and 3.88 h and 21.27 h and 3.00 h and 8.94 h and 7.80 h. In addition, in data set [1] (setting [4]), the T max is 1.5 h (5×) and 2 h (6×) and 4 h (4×) and 1 h. Moreover, the “First time at which quantified in plasma” value in data set [1] (after oral 97/78 200 mg) came to 0.5 h. In data set [1] (after oral 97/78 200 mg, two volunteers up to 72 h), the “Last time at which quantified in plasma” value is “up to 48 h”. Moreover, in data set [1] (setting [5]), the Cmax (commonly the highest concentration seen after dosing) came out at 144 ± 28.3 ng/mL and the time of peak concentration (Tmax) (as a rule, the time from dosing to the highest level) came out at 2.28 ± 0.27 h. In addition, the AUC(0-inf) – broadly, the area under the concentration-time curve extrapolated to infinity – in data set [1] (male, human, plasma, po, 200 mg, 97/63 after oral 97/78 200 mg single dose, Mean ± SEM, N = 16) was 845 ± 143 ng·h/mL. Besides, the MRT in data set [1] (male, human, plasma, po, 200 mg, 97/63 after oral 97/78 200 mg single dose, Mean ± SEM, N = 16, read-out: MRT) is 9.73 ± 1.06 h. In addition, in data set [1] (male, human, plasma, po, 200 mg, 97/63 after oral 97/78 200 mg, mean, as given in text without unit), the Cmax stood at 144 ± 28.3 ng/mL. The Bioavailability entry in data set [2] is “poor”.
